The values that follow come from patent US8110703B2, “Retinoid derivative and pharmaceutical composition and use thereof” (Anhui Medical University, priority 2008, dated 2012).

The test system of one experiment is liver cancer HepG2 cells. Briefly: MTT cell growth and proliferation experiment, HepG2. The format is cell-based. The arrangement: key to Inhibition Rate: (control OD570 − test OD570)/control OD570, as fraction. As to conditions: for Inhibition Rate: fraction. As to the method:
1.1 Reagents 12 retinoic acid derivatives with the final concentrations of 1 ug/ml, 5 ug/ml and 10 ug/ml are synthesized by the Pharmaceutical College of Anhui Medical University using DMSO and anhydrous ethanol, separately packaged for storage at −20° C. and kept out of the light when used, and the final concentration of DMSO is less than 0.1%. MTT is purchased from Sigma Corp. The Coulter DNA detection kit is presented by the Central Lab of Anhui Provincial Hospital. AFP and γ-GT are provided by the Clinical Lab of No. 105 Hospital of PLA. Apoptosis-Hoechst staining kit is purchased from Beyotime Company.
1.2 Cell Culture A549, and HpeG2 cells are stored by our lab. Cell growth condition: DMEM (from GIBICO Company) culture solution is added with 10% of calf serum (purchased from the Hangzhou Sijiqing Biological Engineering Material Co., Ltd.) to culture in a cell culture incubator (37° C., 5% CO2) with saturated humidity.
1.3 Cell Growth and Proliferation Experiments MTT process is used. Cells in the logarithmic phase are picked and seeded on a 96-hole culture board with a cell concentration of 5×10^7/L. Each hole of the board is 200 ul. The next day after the adherence, the original solution is discarded, and the culture solution is added. The cells are divided into 1 ug/ml retinoic acid derivative groups, 5 ug/ml retinoic acid derivative groups, 10 ug/ml retinoic acid derivative groups, blank control groups, cell control groups, solvent control groups (1‰ DMSO and anhydrous ethanol) (17 in total) according to the concentrations thereof, incubated for 3d, added with MTT (5 g/L) of 20 ul/hole for incubation at 37° C. for 4 h. The original solution is carefully discarded and dried, and DMSO of 20 ul/hole is added to dissolve crystals, followed by vibrating for 10 min and determining the OD value at 570 nm. Each concentration is corresponding to 5 holes, and each group calculates the average of 3 experiments to calculate the inhibition rate to the cell growth according to the optical density (OD) average of each hole in each group and the following equation: inhibition rate %=(control hole OD570−experimental hole OD570)/control hole OD5700*100%. The process above is repeated for three times. The second experiment takes the maximum concentration (10 […]) for culture respectively for 1, 2, 3 and 7 days and repeat for three times.

In the next experiment the test system is NB4 cells. The experiment in a line: Cell cycle analysis by flow cytometer, NB4. The format is cell-based. The arrangement: S %: dose or concentration left out as unconfirmed. As to conditions: 72 h. The procedure: Retinoic acid derivatives and fenretinide are prepared as a storage solution of 10 mg/mL by anhydrous ethanol and stored at […] and kept out of light.
NB4 cells and K562 cells are inoculated with an initial concentration of 2*10^5/ml in the RPMI1640 culture solution having 10% of calf serum (FBS), 100 u/ml of penicillin, 100 Lg/ml of streptomycin and 2 mmol/L of glutamine for suspension culture (37° C., 5% CO2). Change the solution every 2-3 days.
For the cells above acted by the retinoic acid derivatives and fenretinide ([…]) for 72 h, about 10^6 of them are collected, washed by PBS twice, fixed by 70% of cold ethanol over 24 h, washed by PBS twice, added with 5 ug/ml of propidium iodide for staining and detected by a flow cytometer from which the data are analyzed and processed by the multi-cycle software.
For orientation: A flow cytometer gives signals particle by particle.

The mark [1] stands for this setting: HepG2, MTT OD 570 nm, 1 ug/ml, 3 d, solvent not given.
Setting [2] is: HepG2, MTT OD 570 nm, 5 ug/ml, 3 d, solvent not given.
Setting [3] is: HepG2, MTT OD 570 nm, 10 ug/ml, 3 d, solvent not given.
The mark [4] stands for this setting: HepG2, MTT time gradient, 10 ug/ml, 1 d.
Where [5] appears, read: HepG2, MTT time gradient, 10 ug/ml, 2 d.
Where [6] appears, read: HepG2, MTT time gradient, 10 ug/ml, 3 d.
Setting [7] is: HepG2, MTT time gradient, 10 ug/ml, 7 d.
Where [8] appears, read: HepG2, MTT, 1 ug/ml, 3 d, solvent not given.
[9] abbreviates: HepG2, MTT, 5 ug/ml, 3 d, solvent not given.
Setting [10] is: HepG2, MTT, 10 ug/ml, 3 d, solvent not given.
Setting [11] is: HepG2, Table 5 repeat MTT, 10 ug/ml, 3 days, DMSO.
Setting [12] is: HepG2, Table 5 repeat MTT, 10 ug/ml, 3 days, ethanol.

Marks after values point to notes of the source that are not given here.

For the compound `CC1=C(/C=C/C(C)=C/C=C/C(C)=C/C(=O)Nc2cccc(OC(F)(F)F)c2)C(C)(C)CCC1` [Example 6a-02, (3-trifluoromethoxyphenyl)-(all-trans)-3,7-dimethyl-9-(2,6,6-trimethyl-1-cyclohexen-1-yl)-2,4,6,8-nonatetraenoic acid amide], the “OD Value (x ± s)” value was found to be 1.38 ± 0.62 in the experiment with liver cancer HepG2 cells (setting [1]); 1.16 ± 0.38 with liver cancer HepG2 cells (setting [2]); 0.84 ± 0.31 with liver cancer HepG2 cells (setting [3]); 1.60 ± 0.19 with liver cancer HepG2 cells (setting [4]); 1.14 ± 0.09 in the experiment with liver cancer HepG2 cells (setting [5]); 0.81 ± 0.12 in the experiment with liver cancer HepG2 cells (setting [6]). The “OD Value (x ± s)” value came to 0.49 ± 0.32 with liver cancer HepG2 cells (setting [7]) and 1.125 ± 0.146 with liver cancer HepG2 cells (setting [11]). Besides, the “Inhibition Rate” value is listed as 0.07 in the experiment with liver cancer HepG2 cells (setting [4]); 0.32 in the experiment with liver cancer HepG2 cells (setting [5]); 0.34 with liver cancer HepG2 cells (setting [6]); 0.63 in the experiment with liver cancer HepG2 cells (setting [7]); 0.18 in the experiment on liver cancer HepG2 cells (setting [8]); 0.31 in the experiment with liver cancer HepG2 cells (setting [9]). Besides, the “Inhibition Rate” value in the experiment with liver cancer HepG2 cells (setting [10]) is 0.50; with liver cancer HepG2 cells (setting [11]) it was 0.480*. Also, the G1 % in the experiment on NB4 cells was 75.47%. Further, in the experiment on NB4 cells, the G2 % is on record as 5.52%. The S % in the experiment with NB4 cells was 19.01%.

With `CC1=C(/C=C/C(C)=C/C=C/C(C)=C/C(=O)Nc2cccc(C(F)(F)F)c2)C(C)(C)CCC1` [Example 3a-02, (3-trifluoromethylphenyl)-(all-trans)-3,7-dimethyl-9-(2,6,6-trimethyl-1-cyclohexen-1-yl)-2,4,6,8-nonatetraenoic acid amide], the “OD Value (x ± s)” value in the experiment on liver cancer HepG2 cells (setting [1]) was determined as 1.19 ± 0.50; with liver cancer HepG2 cells (setting [2]), 0.92 ± 0.27; with liver cancer HepG2 cells (setting [3]) it was 0.94 ± 0.41; in the experiment on liver cancer HepG2 cells (setting [4]), 1.43 ± 0.07; in the experiment with liver cancer HepG2 cells (setting [5]) it was 0.81 ± 0.12; with liver cancer HepG2 cells (setting [6]) it was 0.55 ± 0.03. The “OD Value (x ± s)” value with liver cancer HepG2 cells (setting [7]) is on record as 0.32 ± 0.12; in the experiment with liver cancer HepG2 cells (setting [11]), 1.331 ± 0.067. The “Inhibition Rate” value in the experiment with liver cancer HepG2 cells (setting [4]) is on record as 0.17; in the experiment with liver cancer HepG2 cells (setting [5]) it was 0.52; with liver cancer HepG2 cells (setting [6]), 0.55; in the experiment with liver cancer HepG2 cells (setting [7]), 0.76; in the experiment on liver cancer HepG2 cells (setting [8]), 0.30; in the experiment on liver cancer HepG2 cells (setting [9]), 0.45. Moreover, the “Inhibition Rate” value with liver cancer HepG2 cells (setting [10]) was 0.45; in the experiment with liver cancer HepG2 cells (setting [11]) it was 0.385*. The G1 % in the experiment on NB4 cells came to 45.83%. In the experiment on NB4 cells, this compound showed a G2 % of 2.87%. Besides, in the experiment with NB4 cells, the S % turned out to be 51.30%.

Regarding `CC1=C(/C=C/C(C)=C/C=C/C(C)=C/C(=O)Oc2ccc(N)cc2C(F)(F)F)C(C)(C)CCC1` [Example 4a-02, (4-amino-2-trifluoromethylphenyl)-(all-trans)-3,7-dimethyl-9-(2,6,6-trimethyl-1-cyclohexen-1-yl)-2,4,6,8-nonatetraenoate], the “OD Value (x ± s)” value in the experiment on liver cancer HepG2 cells (setting [1]) amounted to 1.50 ± 0.24; in the experiment with liver cancer HepG2 cells (setting [2]) it was 1.32 ± 0.50; with liver cancer HepG2 cells (setting [3]), 0.86 ± 0.13; with liver cancer HepG2 cells (setting [4]), 1.53 ± 0.27; with liver cancer HepG2 cells (setting [5]) it was 1.36 ± 0.13; with liver cancer HepG2 cells (setting [6]) it was 0.74 ± 0.08. The “OD Value (x ± s)” value in the experiment on liver cancer HepG2 cells (setting [7]) came out at 0.70 ± 0.05; in the experiment on liver cancer HepG2 cells (setting [12]), 1.409 ± 0.090. Moreover, the “Inhibition Rate” value in the experiment with liver cancer HepG2 cells (setting [4]) worked out at 0.11; in the experiment on liver cancer HepG2 cells (setting [5]) it was 0.20; in the experiment with liver cancer HepG2 cells (setting [6]), 0.46; in the experiment with liver cancer HepG2 cells (setting [7]), 0.48; with liver cancer HepG2 cells (setting [8]) it was 0.11; in the experiment on liver cancer HepG2 cells (setting [9]) it was 0.22. For the same compound, the “Inhibition Rate” value with liver cancer HepG2 cells (setting [10]) is 0.49; in the experiment with liver cancer HepG2 cells (setting [12]), 0.349*. For the same compound, the G1 % in the experiment on NB4 cells was found to be 52.59%. Further, in the experiment on NB4 cells, the G2 % worked out at 7.68%. Further, in the experiment on NB4 cells, the S % was determined as 39.73%.

`CC1=C(/C=C/C(C)=C/C=C/C(C)=C/C(=O)Oc2ccccc2C(F)(F)F)C(C)(C)CCC1` [Example 2a-03, (2-trifluoromethylphenyl)-(all-trans)-3,7-dimethyl-9-(2,6,6-trimethyl-1-cyclohexen-1-yl)-2,4,6,8-nonatetraenoate]: the “OD Value (x ± s)” value in the experiment with liver cancer HepG2 cells (setting [1]) turned out to be 1.32 ± 0.50; in the experiment on liver cancer HepG2 cells (setting [2]), 1.32 ± 0.56; in the experiment on liver cancer HepG2 cells (setting [3]) it was 0.98 ± 0.19; with liver cancer HepG2 cells (setting [4]) it was 1.61 ± 0.14; in the experiment on liver cancer HepG2 cells (setting [5]) it was 1.55 ± 0.09; in the experiment on liver cancer HepG2 cells (setting [6]) it was 1.24 ± 0.09. Further, the entries for the “OD Value (x ± s)” value in the experiment on liver cancer HepG2 cells (setting [7]) and in the experiment on liver cancer HepG2 cells (setting [11]) were 0.79 ± 0.08 and 1.847 ± 0.091, respectively. Besides, the “Inhibition Rate” value in the experiment on liver cancer HepG2 cells (setting [4]) was determined as 0.07; with liver cancer HepG2 cells (setting [5]), 0.08; with liver cancer HepG2 cells (setting [6]), 0.09; in the experiment on liver cancer HepG2 cells (setting [7]), 0.36; in the experiment with liver cancer HepG2 cells (setting [8]), 0.22; in the experiment on liver cancer HepG2 cells (setting [9]), 0.23. Moreover, the results for the “Inhibition Rate” value with liver cancer HepG2 cells (setting [10]) and with liver cancer HepG2 cells (setting [11]) were 0.42 and 0.468*, respectively. This compound yielded a G1 % with NB4 cells of 65.72%. This compound showed a G2 % in the experiment on NB4 cells of 5.54%. In the experiment with NB4 cells, this compound yielded a S % of 28.74%.
